According to article PMC5216056 (Nature Communications, 2017):
Where “and” joins values, the source holds several entries; their conditions need not be identical. Equal entries are not always repeated. Where two headings read alike, the source gives them in different places.

Experiments:
[1] = biological target: T1, hCB2R (Homo sapiens, UniProt P34972); assay: biochemical; format: biochemical; parameters: expressed in transfected cells; host or cells: Flp-In-293 (Invitrogen #R750-07), pcDNA5/FRT; details: for Emax: read-out: Emax ± SEM GTPγS hCB2R
T1 sequence (P34972 whole entry): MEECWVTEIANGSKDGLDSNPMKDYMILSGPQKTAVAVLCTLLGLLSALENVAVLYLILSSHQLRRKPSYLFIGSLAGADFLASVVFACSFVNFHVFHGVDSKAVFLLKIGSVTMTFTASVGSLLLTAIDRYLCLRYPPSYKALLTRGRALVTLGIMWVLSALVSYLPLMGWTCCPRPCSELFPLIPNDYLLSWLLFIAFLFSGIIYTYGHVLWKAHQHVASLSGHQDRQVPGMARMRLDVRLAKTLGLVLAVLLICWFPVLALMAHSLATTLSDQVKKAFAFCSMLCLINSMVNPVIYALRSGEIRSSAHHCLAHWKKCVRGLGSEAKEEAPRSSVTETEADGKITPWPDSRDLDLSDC

[2] = biological target: T1, hCB2R; parameters: expressed in transfected cells; host or cells: Flp-In-293 (Invitrogen #R750-07), pcDNA5/FRT; details: hCB2R; for ΔLogR GIRK / ΔLogR GTPγS / ΔLogR pERK / ΔLogR β-AR / ΔLogR cAMP: reference CP55940; for RE GIRK / RE GTPγS / RE pERK / RE β-AR / RE cAMP: relative effectiveness
[3] = biological target: T2, hCB1R (Homo sapiens, UniProt P21554); assay: biochemical; format: biochemical
T2 construct: host or cells: CHO
T2 sequence (P21554 whole entry): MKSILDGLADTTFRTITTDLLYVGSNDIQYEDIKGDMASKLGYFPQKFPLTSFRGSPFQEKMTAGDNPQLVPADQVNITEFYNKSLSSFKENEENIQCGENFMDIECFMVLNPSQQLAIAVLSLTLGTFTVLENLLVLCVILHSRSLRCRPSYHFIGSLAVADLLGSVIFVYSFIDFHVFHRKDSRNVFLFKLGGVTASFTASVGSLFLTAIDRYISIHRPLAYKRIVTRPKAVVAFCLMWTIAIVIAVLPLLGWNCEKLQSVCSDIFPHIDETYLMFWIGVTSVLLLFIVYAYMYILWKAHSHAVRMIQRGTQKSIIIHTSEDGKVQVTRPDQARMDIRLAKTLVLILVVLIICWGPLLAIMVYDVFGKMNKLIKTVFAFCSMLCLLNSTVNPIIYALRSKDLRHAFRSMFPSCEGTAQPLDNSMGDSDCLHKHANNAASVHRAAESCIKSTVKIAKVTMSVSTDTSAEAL

[4] = biological target: T1, hCB2R; assay: cell-based; format: cell-based; parameters: expressed in transfected cells; host or cells: Flp-In-293 (Invitrogen #R750-07), pcDNA5/FRT; details: for Emax ± SEM GIRK hCB2R: normalized to CP55940; for Emax: AtT20, read-out: Emax ± SEM GIRK hCB2R
[5] = biological target: T2, hCB1R; assay: cell-based; format: cell-based
[6] = biological target: T1, hCB2R; assay: biochemical; format: binding
[7] = system: AEA cellular uptake in U937 cells; assay: cells; format: cell-based, human; details: for AEA reuptake Efficacy (% inhibition) U937 cells: from dose-response
[8] = system: AEA cellular uptake in HMC-1 cells; assay: cells; format: cell-based, human; details: FAAH-deficient cells
[9] = biological target: T3, hGPR55 (Homo sapiens, UniProt Q9Y2T6); assay: cell-based; details: β-arrestin recruitment; read-out: GPR55 pEC50 (± SEM) (converted)
T3 construct: host or cells: CHO-K1 (PathHunter hGPR55_bgal)
T3 sequence (Q9Y2T6 whole entry): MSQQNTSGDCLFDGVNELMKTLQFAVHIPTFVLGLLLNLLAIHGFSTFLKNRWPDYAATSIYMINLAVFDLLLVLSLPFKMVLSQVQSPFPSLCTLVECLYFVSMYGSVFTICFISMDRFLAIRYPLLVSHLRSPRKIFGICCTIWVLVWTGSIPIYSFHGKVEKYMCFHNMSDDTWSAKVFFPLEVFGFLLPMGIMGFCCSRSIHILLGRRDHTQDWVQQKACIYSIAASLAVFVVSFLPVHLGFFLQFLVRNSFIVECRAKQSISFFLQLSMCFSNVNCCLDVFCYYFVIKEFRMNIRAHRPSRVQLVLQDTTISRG

[10] = CHO membranes, Leiden, HU210 and SR144528 from Roche

`CN1CCCCC1Cn1cc(C(=O)c2cc([N+](=O)[O-])ccc2I)c2ccccc21` (racemic) [(rac)-AM1241] was tested, and the “Emax ± SEM GTPγS hCB2R” value [1] was 56 ± 9, the “hCB2R Selectivity GTPγS” value [1] was 0.03 and the “pEC50 ± SEM GTPγS hCB2R” value [1] was 6.89 ± 0.66. The “GIRK-GTPγS bias factor (BF)” value [2] was 1.08, the “GIRK-GTPγS ΔΔlogR” value [2] was 0.03 ± 0.46 and the “LogR GIRK” value [2] was 5.52. For the same compound, the “LogR GTPγS” value [2] was 5.9, the “LogR pERK” value [2] was 8.67 and the “LogR β-AR” value [2] was 7.95. For the same compound, the “pERK-GIRK bias factor (BF)” value [2] was 95.72, the “pERK-GIRK ΔΔlogR” value [2] was 1.98 ± 0.71 and the “pERK-GTPγS bias factor (BF)” value [2] was 103.28. For the same compound, the “pERK-GTPγS ΔΔlogR” value [2] was 2.01 ± 0.8, the “β-AR-GIRK bias factor (BF)” value [2] was 62.37 and the “β-AR-GIRK ΔΔlogR” value [2] was 1.8 ± 0.49. The “β-AR-GTPγS bias factor (BF)” value [2] was 68.30, the “β-AR-GTPγS ΔΔlogR” value [2] was 1.83 ± 0.61 and the “β-AR-pERK bias factor (BF)” value [2] was 0.65. For the same compound, the “β-AR-pERK ΔΔlogR” value [2] was -0.19 ± 0.81, the “ΔLogR GIRK” value [2] was -2.35 and the “ΔLogR GTPγS” value [2] was -2.38. For the same compound, the “ΔLogR pERK” value [2] was -0.37, the “ΔLogR β-AR” value [2] was -0.55 and the “RE GIRK” value [2] was 0.004. The “RE GTPγS” value [2] was 0.004, the “RE pERK” value [2] was 0.43 and the “RE β-AR” value [2] was 0.28. For the same compound, the “Emax ± SEM GTPγS hCB1R” value [3] was 42 ± 6, the “pEC50 ± SEM GIRK hCB2R” value [4] was 5.23 ± 0.21 and the “Emax ± SEM GIRK hCB2R” value [4] was 59 ± 14%. For the same compound, the “Emax ± SEM pERK hCB1R” value [5] was 86 ± 3, the “pEC50 ± SEM pERK hCB1R” value [5] was 5.07 ± 0.05 and the “CB2R Selectivity (binding, human)” value [6] was 32. The “pKi ± SEM hCB2R” value [6, 10] was 8.39 ± 0.10.
`CCCCC/C=C\C/C=C\C/C=C\C/C=C\CCCC(=O)OC(CO)CO` [2-AG, 2-arachidonoyl glycerol] was tested, and the Emax [1] was 57 ± 11%, the EC50 ([1]; read-out: pEC50 ± SEM GTPγS hCB2R (converted)) was 646 nM and the “GIRK-GTPγS bias factor (BF)” value [2] was 154.53. The “GIRK-GTPγS ΔΔlogR” value [2] was 2.19 ± 0.44, the “GIRK-cAMP bias factor (BF)” value [2] was 178.65 and the “GIRK-cAMP ΔΔlogR” value [2] was 2.25 ± 0.21. The “GTPγS-cAMP bias factor (BF)” value [2] was 1.16, the “GTPγS-cAMP ΔΔlogR” value [2] was 0.06 ± 0.46 and the “LogR GIRK” value [2] was 6.40. The “LogR GTPγS” value [2] was 4.63, the “LogR cAMP” value [2] was 6.99 and the “LogR pERK” value [2] was 6.37. For the same compound, the “LogR β-AR” value [2] was 5.9, the “pERK-GIRK bias factor (BF)” value [2] was 0.06 and the “pERK-GIRK ΔΔlogR” value [2] was -1.2 ± 0.29. The “pERK-GTPγS bias factor (BF)” value [2] was 9.68, the “pERK-GTPγS ΔΔlogR” value [2] was 0.99 ± 0.5 and the “pERK-cAMP bias factor (BF)” value [2] was 11.19. The “pERK-cAMP ΔΔlogR” value [2] was 1.05 ± 0.31, the “β-AR-GIRK bias factor (BF)” value [2] was 0.07 and the “β-AR-GIRK ΔΔlogR” value [2] was -1.14 ± 0.19. The “β-AR-GTPγS bias factor (BF)” value [2] was 11.27, the “β-AR-GTPγS ΔΔlogR” value [2] was 1.05 ± 0.45 and the “β-AR-cAMP bias factor (BF)” value [2] was 13.03. The “β-AR-cAMP ΔΔlogR” value [2] was 1.12 ± 0.23, the “β-AR-pERK bias factor (BF)” value [2] was 1.16 and the “β-AR-pERK ΔΔlogR” value [2] was 0.07 ± 0.3. The “ΔLogR GIRK” value [2] was -1.47, the “ΔLogR GTPγS” value [2] was -3.65 and the “ΔLogR cAMP” value [2] was -3.72. The “ΔLogR pERK” value [2] was -2.67, the “ΔLogR β-AR” value [2] was -2.6 and the “RE GIRK” value [2] was 0.03. The “RE GTPγS” value [2] was 0.0002, the “RE cAMP” value [2] was 0.0002 and the “RE pERK” value [2] was 0.002. For the same compound, the “RE β-AR” value [2] was 0.003, the Emax ([3]; read-out: Emax ± SEM GTPγS hCB1R) was 71 ± 20% and the Emax [4] was 100 ± 2%. For the same compound, the Emax ([5]; read-out: Emax ± SEM pERK hCB1R) was 111 ± 10% and the Ki ([6]; CHO membranes, Leiden, HU210 and SR144528 from Roche, read-out: pKi ± SEM hCB2R (converted)) was ~100 nM and 115 nM.
`CN1CCCC[C@@H]1Cn1cc(C(=O)c2cc([N+](=O)[O-])ccc2I)c2ccccc21` [(R)-AM1241] was tested, and the “Emax ± SEM GTPγS hCB2R” value [1] was 33 ± 2, the “pEC50 ± SEM GTPγS hCB2R” value [1] was 7.40 ± 0.50 and the “hCB2R Selectivity GTPγS” value ([1]; 10^(pEC50 CB2R-pEC50 CB1R)) was 4 fold. For the same compound, the “GIRK-GTPγS bias factor (BF)” value [2] was 0.04, the “GIRK-GTPγS ΔΔlogR” value [2] was -1.39 and the “LogR GIRK” value [2] was 5.48. For the same compound, the “LogR GTPγS” value [2] was 7.3, the “LogR pERK” value [2] was 8.12 and the “LogR β-AR” value [2] was 7.21. For the same compound, the “pERK-GIRK bias factor (BF)” value [2] was 29.32, the “pERK-GIRK ΔΔlogR” value [2] was 1.47 ± 0.37 and the “pERK-GTPγS bias factor (BF)” value [2] was 1.18. For the same compound, the “pERK-GTPγS ΔΔlogR” value [2] was 0.07 ± 0.55, the “β-AR-GIRK bias factor (BF)” value [2] was 12.13 and the “β-AR-GIRK ΔΔlogR” value [2] was 1.08 ± 0.36. The “β-AR-GTPγS bias factor (BF)” value [2] was 0.49, the “β-AR-GTPγS ΔΔlogR” value [2] was -0.31 ± 0.54 and the “β-AR-pERK bias factor (BF)” value [2] was 0.41. For the same compound, the “β-AR-pERK ΔΔlogR” value [2] was -0.38 ± 0.39, the “ΔLogR GIRK” value [2] was -2.38 and the “ΔLogR GTPγS” value [2] was -0.99. For the same compound, the “ΔLogR pERK” value [2] was -0.91, the “ΔLogR β-AR” value [2] was -1.30 and the “RE GIRK” value [2] was 0.004. For the same compound, the “RE GTPγS” value [2] was 0.10, the “RE pERK” value [2] was 0.12 and the “RE β-AR” value [2] was 0.05. The “AEA reuptake Efficacy (% inhibition) U937 cells” value [7] was 77%, the IC50 ([7]; read-out: AEA reuptake IC50 (95% CI) U937 cells) was 4810 nM and the “Emax ± SEM GTPγS hCB1R” value [3] was 47 ± 8. The “pEC50 ± SEM GTPγS hCB1R” value [3] was 6.78 ± 0.40, the “pEC50 ± SEM GIRK hCB2R” value [4] was under 5 and the “Emax ± SEM GIRK hCB2R” value [4] was 47 ± 13%. For the same compound, the “Emax ± SEM pERK hCB1R” value [5] was 78 ± 12, the “pEC50 ± SEM pERK hCB1R” value [5] was 5.66 ± 0.19 and the “CB2R Selectivity (binding, human)” value ([6]; 10^(pKi CB2R-pKi CB1R)) was 38 fold. For the same compound, the “pKi ± SEM hCB2R” value [6, 10] was 8.44 ± 0.25 and the IC50 ([8]; read-out: AEA reuptake IC50 (95% CI) HMC-1 cells) was over 5000 nM.
`CCCCC/C=C\C/C=C\C/C=C\C/C=C\CCCC(=O)NCCO` [Anandamide, N-arachidonoylethanolamine] was tested, and the Emax [1] was 31 ± 4%, the “GIRK-GTPγS bias factor (BF)” value [2] was 2.57 and the “GIRK-GTPγS ΔΔlogR” value [2] was 0.41 ± 0.65. The “GIRK-cAMP bias factor (BF)” value [2] was 26.36, the “GIRK-cAMP ΔΔlogR” value [2] was 1.42 ± 0.34 and the “GTPγS-cAMP bias factor (BF)” value [2] was 10.26. The “GTPγS-cAMP ΔΔlogR” value [2] was 1.01 ± 0.41, the “LogR GIRK” value [2] was 4.53 and the “LogR GTPγS” value [2] was 4.54. For the same compound, the “LogR cAMP” value [2] was 5.96, the “LogR pERK” value [2] was 6.03 and the “LogR β-AR” value [2] was 5.54. The “pERK-GIRK bias factor (BF)” value [2] was 2.14, the “pERK-GIRK ΔΔlogR” value [2] was 0.33 ± 0.43 and the “pERK-GTPγS bias factor (BF)” value [2] was 5.50. For the same compound, the “pERK-GTPγS ΔΔlogR” value [2] was 0.74 ± 0.66, the “pERK-cAMP bias factor (BF)” value [2] was 56.36 and the “pERK-cAMP ΔΔlogR” value [2] was 1.75 ± 0.37. For the same compound, the “β-AR-GIRK bias factor (BF)” value [2] was 2.37, the “β-AR-GIRK ΔΔlogR” value [2] was 0.38 ± 0.37 and the “β-AR-GTPγS bias factor (BF)” value [2] was 6.10. For the same compound, the “β-AR-GTPγS ΔΔlogR” value [2] was 0.79 ± 0.62, the “β-AR-cAMP bias factor (BF)” value [2] was 62.52 and the “β-AR-cAMP ΔΔlogR” value [2] was 1.80 ± 0.29. For the same compound, the “β-AR-pERK bias factor (BF)” value [2] was 1.11, the “β-AR-pERK ΔΔlogR” value [2] was 0.04 ± 0.39 and the “ΔLogR GIRK” value [2] was -3.33. The “ΔLogR GTPγS” value [2] was -3.74, the “ΔLogR cAMP” value [2] was -4.76 and the “ΔLogR pERK” value [2] was -3 ± 0.32. For the same compound, the “ΔLogR β-AR” value [2] was -2.96, the “RE GIRK” value [2] was 0.005 and the “RE GTPγS” value [2] was 0.0002. For the same compound, the “RE cAMP” value [2] was 0.00002, the “RE pERK” value [2] was 0.001 and the “RE β-AR” value [2] was 0.001. It also gave an Emax [4] of 51 ± 5% and an EC50 [9] of over 10000 nM.
In the case of `Cc1c(C(=O)NN2CCCCC2)nn(-c2ccc(Cl)cc2Cl)c1-c1ccc(Cl)cc1` [SR141716A], the IC50 ([7]; Homo sapiens, U-937, read-out: AEA reuptake IC50 (95% CI) U937 cells) is reported as 1910 nM, the “AEA reuptake Efficacy (% inhibition) U937 cells” value [7] is reported as 57% and the IC50 ([8]; Homo sapiens, HMC1, read-out: AEA reuptake IC50 (95% CI) HMC-1 cells) is reported as 3500 nM.
